Drawing on patent US8633206B2, “Pyrrolo[2,3-D]pyrimidine compounds” (Pfizer Inc., priority 2009, dated 2014), this text covers IC50 for 17 compounds.

What all share (type): biochemical
One test deals with JAK1 (Homo sapiens (Human), UniProt P23458). Put plainly: JAK enzymatic assay (peptide mobility shift), JAK1. To be noted: recombinant JAK1 20 nM, IRS-1 peptide, 240 minutes.
For another test, the target named is JAK2 (Homo sapiens (Human), UniProt O60674). Put plainly: JAK enzymatic assay (peptide mobility shift), JAK2. To be noted: recombinant JAK2 2 nM, JAKtide peptide, 150 minutes.
Chain of JAK2 (O60674 808-1132): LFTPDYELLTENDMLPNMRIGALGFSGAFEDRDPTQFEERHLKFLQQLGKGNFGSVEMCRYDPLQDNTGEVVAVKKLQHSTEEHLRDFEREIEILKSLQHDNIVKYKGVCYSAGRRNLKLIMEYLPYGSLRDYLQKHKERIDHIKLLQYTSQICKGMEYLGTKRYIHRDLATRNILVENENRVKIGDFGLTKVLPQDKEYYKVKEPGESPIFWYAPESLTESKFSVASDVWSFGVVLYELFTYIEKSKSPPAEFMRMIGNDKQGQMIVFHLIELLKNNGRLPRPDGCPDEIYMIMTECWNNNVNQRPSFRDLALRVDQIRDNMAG
A further test concerns the target JAK3 (Homo sapiens (Human), UniProt P52333). Put plainly: JAK enzymatic assay (peptide mobility shift), JAK3. To be noted: recombinant JAK3 1 nM, JAKtide peptide, 90 minutes.

Broadly, the IC50 is the midpoint of a concentration-inhibition curve.

Chain of JAK3 (P52333 781-1124): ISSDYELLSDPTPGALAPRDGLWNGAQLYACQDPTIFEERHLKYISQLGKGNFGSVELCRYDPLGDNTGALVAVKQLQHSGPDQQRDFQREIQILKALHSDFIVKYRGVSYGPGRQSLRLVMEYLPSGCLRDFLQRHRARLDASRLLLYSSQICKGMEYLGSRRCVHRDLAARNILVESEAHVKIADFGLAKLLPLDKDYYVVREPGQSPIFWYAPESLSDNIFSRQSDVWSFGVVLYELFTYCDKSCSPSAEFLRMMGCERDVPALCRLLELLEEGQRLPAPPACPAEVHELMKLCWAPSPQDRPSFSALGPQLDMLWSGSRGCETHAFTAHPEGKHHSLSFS
Chain of JAK1 (P23458 whole entry): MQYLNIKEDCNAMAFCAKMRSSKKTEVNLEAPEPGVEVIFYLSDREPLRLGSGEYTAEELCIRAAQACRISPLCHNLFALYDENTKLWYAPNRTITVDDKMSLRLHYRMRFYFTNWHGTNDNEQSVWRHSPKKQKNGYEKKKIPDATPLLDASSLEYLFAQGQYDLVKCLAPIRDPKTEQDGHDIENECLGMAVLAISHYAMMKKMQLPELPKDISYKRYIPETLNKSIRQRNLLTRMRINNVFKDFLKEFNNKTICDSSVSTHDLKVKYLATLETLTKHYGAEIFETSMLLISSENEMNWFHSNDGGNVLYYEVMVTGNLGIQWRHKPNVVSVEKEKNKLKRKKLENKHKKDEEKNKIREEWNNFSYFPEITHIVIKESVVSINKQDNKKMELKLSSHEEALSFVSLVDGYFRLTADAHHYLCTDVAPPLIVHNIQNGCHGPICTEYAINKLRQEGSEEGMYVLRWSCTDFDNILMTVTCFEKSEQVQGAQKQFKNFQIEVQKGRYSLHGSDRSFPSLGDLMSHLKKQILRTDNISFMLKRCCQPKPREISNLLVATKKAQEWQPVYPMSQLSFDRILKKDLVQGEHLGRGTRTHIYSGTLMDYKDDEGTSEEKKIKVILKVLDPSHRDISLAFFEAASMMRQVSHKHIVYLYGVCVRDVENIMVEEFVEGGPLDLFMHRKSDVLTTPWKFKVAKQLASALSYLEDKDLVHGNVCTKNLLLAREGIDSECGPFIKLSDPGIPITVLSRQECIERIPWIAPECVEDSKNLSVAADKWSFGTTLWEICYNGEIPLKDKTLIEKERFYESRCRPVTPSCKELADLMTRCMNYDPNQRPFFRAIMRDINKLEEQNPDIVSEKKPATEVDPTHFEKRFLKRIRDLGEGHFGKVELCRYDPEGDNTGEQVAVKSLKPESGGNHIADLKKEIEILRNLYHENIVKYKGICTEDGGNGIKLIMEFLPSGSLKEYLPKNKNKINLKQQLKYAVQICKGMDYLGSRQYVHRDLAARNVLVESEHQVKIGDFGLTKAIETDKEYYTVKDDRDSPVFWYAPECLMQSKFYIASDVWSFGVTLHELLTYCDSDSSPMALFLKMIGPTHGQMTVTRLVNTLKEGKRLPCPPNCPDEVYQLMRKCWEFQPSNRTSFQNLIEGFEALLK

With `CN(c1ncnc2[nH]ccc12)[C@H]1CC[C@H](CS(=O)(=O)N2CCC[C@@H](O)C2)CC1` [Example 40, (3R)-1-[({trans-4-[methyl(7H-pyrrolo[2,3-d]pyrimidin-4-yl)amino]-cyclohexyl}methyl)sulfonyl]piperidin-3-ol], the half-maximal inhibitory concentration (IC50) came out at 1.44 nM at JAK1, 8.04 nM on JAK2 and 105 nM at JAK3.

For `COC1CCN(S(=O)(=O)C[C@H]2CC[C@H](N(C)c3ncnc4[nH]ccc34)CC2)CC1` [Example 41, N-(trans-4-{[(4-methoxy-piperidin-1-yl)-sulfonyl]-methyl}cyclohexyl)-N-methyl-7H-pyrrolo[2,3-d]-pyrimidin-4-amine], the IC50 came to 22.1 nM on JAK1, 107 nM on JAK2 and 634 nM at JAK3.

Regarding `CN(c1ncnc2[nH]ccc12)[C@H]1CC[C@H](CS(=O)(=O)N2CCC(C#N)CC2)CC1` [Example 42, 1-[({trans-4-[methyl(7H-pyrrolo[2,3-d]pyrimidin-4-yl)amino]cyclohexyl}-methyl)sulfonyl]piperidine-4-carbonitrile], the IC50 at JAK1 came to 16.5 nM; at JAK2, 66.9 nM; at JAK3, 431 nM.

Regarding `COCC1CCN(S(=O)(=O)C[C@H]2CC[C@H](N(C)c3ncnc4[nH]ccc34)CC2)CC1` [Example 43, N-[trans-4-({[4-(methoxy-methyl)piperidin-1-yl]-sulfonyl}methyl)-cyclohexyl]-N-methyl-7H-pyrrolo[2,3-d]pyrimidin-4-amine], the IC50 on JAK1 amounted to 12.8 nM; at JAK2 it was 71 nM; on JAK3 it was 434 nM.

With `CCC1(C(N)=O)CCN(S(=O)(=O)C[C@H]2CC[C@H](N(C)c3ncnc4[nH]ccc34)CC2)CC1` [Example 44, 4-ethyl-1-[({trans-4-[methyl(7H-pyrrolo[2,3-d]-pyrimidin-4-yl)amino]-cyclohexyl}methyl)sulfonyl] piperidine-4-carboxarnide], the half-maximal inhibitory concentration (IC50) is 8.01 nM at JAK1, 61.1 nM at JAK2 and 353 nM on JAK3.

Turning to `COCCC1(C(N)=O)CCN(S(=O)(=O)C[C@H]2CC[C@H](N(C)c3ncnc4[nH]ccc34)CC2)CC1` [Example 45, 4-(2-methoxyethyl)-1-[({trans-4-[methyl(7H-pyrrolo[2,3-d]pyrimidin-4-yl)amino]cyclohexyl}-methyl)sulfonyl]piperidine-4-carboxamide], the results for the IC50 on JAK1, at JAK2 and at JAK3 were 1.59 nM, 8.97 nM and 39.6 nM, respectively.

As for `CN(c1ncnc2[nH]ccc12)[C@H]1CC[C@H](CS(=O)(=O)N2CCC(Cc3ncccn3)CC2)CC1` [Example 46, N-methyl-N-[trans-4-({[4-(pyrimidin-2-ylmethyl)-piperidin-1-yl]sulfonyl}-methyl)cyclohexyl]-7H-pyrrolo[2,3-d]pyrimidin-4-amine], the results for the IC50 on JAK1, at JAK2 and on JAK3 were 5.98 nM, 17.7 nM and 167 nM, respectively.

Take `CN(c1ncnc2[nH]ccc12)[C@H]1CC[C@H](CS(=O)(=O)N2CCC(C(C)(C)O)CC2)CC1` [Example 47, 2-{1-[({trans-4-[methyl(7H-pyrrolo[2,3-d]pyrimidin-4-yl)amino]cyclohexyl}methyl)-sulfonyl]piperidin-4-yl}propan-2-ol]: the values for the IC50 on JAK1, on JAK2 and on JAK3 were 13.5 nM, 68.4 nM and 397 nM, respectively.

As for `Cc1ccc(CC2CCN(S(=O)(=O)C[C@H]3CC[C@H](N(C)c4ncnc5[nH]ccc45)CC3)CC2)nn1` [Example 48, N-methyl-N-{trans-4-[({4-[(6-methylpyridazin-3-yl)methyl]piperidin-1-yl}sulfonyl)methyl]cyclo-hexyl}-7H-pyrrolo[2,3-d]-pyrimidin-4-amine], the IC50 amounted to 22.7 nM on JAK1, 84.9 nM on JAK2 and 753 nM at JAK3.

In the case of `CN(c1ncnc2[nH]ccc12)[C@H]1CC[C@H](CS(=O)(=O)N2CCC(c3nc(CS(C)(=O)=O)no3)CC2)CC1` [Example 50, N-methyl-N-(trans-4-{[(4-{3-[(methylsulfonyl)-methyl]-1,2,4-oxadiazol-5-yl}piperidin-1-yl)sulfonyl]-methyl)cyclohexyl)-7H-pyrrolo[2,3-d]pyrimidin-4-amine], the results for the IC50 on JAK1, at JAK2 and at JAK3 were 8.33 nM, 65.8 nM and 581 nM, respectively.

As for `CC1CCN(S(=O)(=O)C[C@H]2CC[C@H](N(C)c3ncnc4[nH]ccc34)CC2)CC1` [Example 51, N-methyl-N-(trans-4-{[(4-methylpiperidin-1-yl)sulfonyl]-methyl}cyclohexyl)-7H-pyrrolo[2,3-d]pyrimidin-4-amine], the figures for the concentration for half-maximal inhibition (IC50) on JAK1, at JAK2 and on JAK3 were 16.4 nM, 85.1 nM and 781 nM, respectively.

As to `CCN(CC)C(=O)C1CCN(S(=O)(=O)C[C@H]2CC[C@H](N(C)c3ncnc4[nH]ccc34)CC2)CC1` [Example 52, N,N-diethyl-1-[({trans-4-[methyl(7H-pyrrolo[2,3-d]-pyrimidin-4-yl)amino]-cyclohexyl}methyl)sulfonyl] piperidine-4-carboxamide], the figures for the IC50 at JAK1, at JAK2 and on JAK3 were 22.6 nM, 115 nM and 1240 nM, respectively.

As for `CNC(=O)C1CCN(S(=O)(=O)C[C@H]2CC[C@H](N(C)c3ncnc4[nH]ccc34)CC2)CC1` [Example 54, N-methyl-1-[({trans-4-[methyl(7H-pyrrolo[2,3-d]-pyrimidin-4-yl)amino]-cyclohexyl}methyl)sulfonyl] piperidine-4-carboxamide], the IC50 on JAK1 is 22 nM; at JAK2, 44.9 nM; at JAK3, 377 nM.

For the compound `CN(c1ncnc2[nH]ccc12)[C@H]1CC[C@H](CS(=O)(=O)N2CCC(CC(N)=O)CC2)CC1` [Example 55, 2-{1-[({trans-4-[methyl(7H-pyrrolo[2,3-d]pyrimidin-4-yl)amino]cyclohexyl}-methyl)sulfonyl]piperidin-4-yl}-acetamide], the IC50 at JAK1 was 20.1 nM; on JAK2, 84.8 nM; at JAK3 it was 681 nM.

In the case of `CN(c1ncnc2[nH]ccc12)[C@H]1CC[C@H](CS(=O)(=O)N2CCC(COCC3CC3)CC2)CC1` [Example 56, N-{trans-4-[({4-[(cyclopropyl-methoxy)-methyl]piperidin-1-yl}-sulfonyl)-methyl]-cyclohexyl}-N-methyl-7H-pyrrolo[2,3-d]-pyrimidin-4-amine], the concentration for half-maximal inhibition (IC50) at JAK1 amounted to 4.07 nM; on JAK2, 59.8 nM; on JAK3 it was 170 nM.

Consider `CN(C)S(=O)(=O)C[C@H]1CCCN(S(=O)(=O)C[C@H]2CC[C@H](N(C)c3ncnc4[nH]ccc34)CC2)C1` [Example 57, N,N-dimethyl-1-{1-[({trans-4-[methyl(7H-pyrrolo[2,3-d]pyrimidin-4-yl)amino]-cyclohexyl}methyl)sulfonyl]piperidin-3-yl}-methanesulfonamide], for which the figures for the IC50 at JAK1, on JAK2 and on JAK3 were 7.7 nM, 50.8 nM and 453 nM, respectively.

Take `CN(c1ncnc2[nH]ccc12)[C@H]1CC[C@H](CS(=O)(=O)N2CCC[C@H](O)C2)CC1` [Example 58, 1-[({trans-4-[methyl(7H-pyrrolo[2,3-d]pyrimidin-4-yl)-amino]cyclohexyl}-methyl)sulfonyl]piperidin-3-ol]: the IC50 was 3.2 nM on JAK1, 18 nM at JAK2 and 175 nM at JAK3.
